{"source": "ChEMBL document CHEMBL5465560", "about": "“Selectivity Literature for EUbOPEN Chemogenomic Library” (2024)", "key": {"[1]": {"target": "T1, N-lysine methyltransferase KMT5A (Homo sapiens) (UniProt Q9NQR1)", "T1 sequence (whole entry)": "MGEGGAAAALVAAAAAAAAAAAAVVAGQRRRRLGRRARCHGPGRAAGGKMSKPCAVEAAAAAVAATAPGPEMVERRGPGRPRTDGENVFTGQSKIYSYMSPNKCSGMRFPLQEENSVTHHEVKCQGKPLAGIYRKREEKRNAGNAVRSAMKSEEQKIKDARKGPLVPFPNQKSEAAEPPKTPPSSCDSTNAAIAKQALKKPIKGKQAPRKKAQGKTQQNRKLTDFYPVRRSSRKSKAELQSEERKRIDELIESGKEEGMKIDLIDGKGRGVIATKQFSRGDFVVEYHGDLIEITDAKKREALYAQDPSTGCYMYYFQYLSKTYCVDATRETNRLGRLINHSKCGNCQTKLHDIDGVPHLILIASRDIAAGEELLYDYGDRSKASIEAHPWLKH", "test": "Selectivity interaction (Methyltransferase screen (radiometric assays, panel of 8 PRMTs, 21 protein lysine methyltransferases, 3 DNA methyltransferases, and one RNA methyltransferase)) EUB0000272b SETD8"}, "[2]": {"target": "T2, Dual specificity mitogen-activated protein kinase kinase 7 (Homo sapiens) (UniProt O14733)", "T2 sequence (whole entry)": "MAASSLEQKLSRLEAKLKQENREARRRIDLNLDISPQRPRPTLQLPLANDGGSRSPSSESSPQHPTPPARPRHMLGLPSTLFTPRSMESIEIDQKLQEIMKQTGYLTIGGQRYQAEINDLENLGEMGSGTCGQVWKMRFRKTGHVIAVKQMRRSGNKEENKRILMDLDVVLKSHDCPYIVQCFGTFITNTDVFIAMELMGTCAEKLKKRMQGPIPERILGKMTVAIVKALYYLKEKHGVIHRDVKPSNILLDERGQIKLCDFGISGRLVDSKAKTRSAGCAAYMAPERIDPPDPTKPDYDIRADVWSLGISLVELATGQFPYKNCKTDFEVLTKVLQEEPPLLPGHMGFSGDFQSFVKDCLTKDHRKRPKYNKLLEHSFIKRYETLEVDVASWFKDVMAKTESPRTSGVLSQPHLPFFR", "test": "Selectivity interaction (KinomeScan (DiscoverX)) EUB0000229b MAP2K7", "conditions": "at 10 µM"}, "[3]": {"target": "Ribosomal protein S6 kinase alpha-2 (Homo sapiens) (UniProt Q15349)", "test": "Selectivity interaction (Kinome Scan (DiscoverX)) EUB0000229b RPS6KA2", "conditions": "at 10 µM"}, "[4]": {"tested_on": "Tyrosine-protein kinase ABL1 (Homo sapiens), P00519 [T315I]", "test": "Selectivity interaction (KinomeScan (DiscoverX)) EUB0000092b ABL1", "conditions": "at 10 µM"}, "[5]": {"target": "T3, Inhibitor of nuclear factor kappa-B kinase subunit beta (Homo sapiens) (UniProt O14920)", "T3 sequence (whole entry)": "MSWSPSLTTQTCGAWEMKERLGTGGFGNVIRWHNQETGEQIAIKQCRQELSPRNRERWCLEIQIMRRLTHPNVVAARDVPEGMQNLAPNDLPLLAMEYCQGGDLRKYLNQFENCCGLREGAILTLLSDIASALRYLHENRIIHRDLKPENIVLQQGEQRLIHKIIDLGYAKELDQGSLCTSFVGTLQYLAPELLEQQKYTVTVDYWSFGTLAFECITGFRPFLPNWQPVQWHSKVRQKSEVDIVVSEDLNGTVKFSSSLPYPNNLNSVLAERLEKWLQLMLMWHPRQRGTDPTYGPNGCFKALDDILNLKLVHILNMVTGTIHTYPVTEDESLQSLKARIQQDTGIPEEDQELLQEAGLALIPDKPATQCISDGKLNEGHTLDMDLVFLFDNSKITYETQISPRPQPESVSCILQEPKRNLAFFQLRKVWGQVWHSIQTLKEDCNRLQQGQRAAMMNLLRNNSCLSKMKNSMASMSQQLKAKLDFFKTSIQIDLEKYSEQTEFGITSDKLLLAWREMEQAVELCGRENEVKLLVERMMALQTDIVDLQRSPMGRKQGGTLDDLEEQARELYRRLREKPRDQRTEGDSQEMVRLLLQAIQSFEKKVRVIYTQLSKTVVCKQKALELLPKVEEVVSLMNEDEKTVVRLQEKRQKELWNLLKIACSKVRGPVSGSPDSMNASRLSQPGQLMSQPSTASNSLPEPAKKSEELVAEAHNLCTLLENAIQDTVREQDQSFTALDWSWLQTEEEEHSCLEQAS", "test": "Selectivity interaction (Millipore kinase profiler) EUB0000124b IKBKB", "conditions": "at 10 µM"}, "[6]": {"tested_on": "Receptor-type tyrosine-protein kinase FLT3 (Homo sapiens), P36888 [UNDEFINED MUTATION]", "sequence (P36888 whole entry, looked up, change not shown)": "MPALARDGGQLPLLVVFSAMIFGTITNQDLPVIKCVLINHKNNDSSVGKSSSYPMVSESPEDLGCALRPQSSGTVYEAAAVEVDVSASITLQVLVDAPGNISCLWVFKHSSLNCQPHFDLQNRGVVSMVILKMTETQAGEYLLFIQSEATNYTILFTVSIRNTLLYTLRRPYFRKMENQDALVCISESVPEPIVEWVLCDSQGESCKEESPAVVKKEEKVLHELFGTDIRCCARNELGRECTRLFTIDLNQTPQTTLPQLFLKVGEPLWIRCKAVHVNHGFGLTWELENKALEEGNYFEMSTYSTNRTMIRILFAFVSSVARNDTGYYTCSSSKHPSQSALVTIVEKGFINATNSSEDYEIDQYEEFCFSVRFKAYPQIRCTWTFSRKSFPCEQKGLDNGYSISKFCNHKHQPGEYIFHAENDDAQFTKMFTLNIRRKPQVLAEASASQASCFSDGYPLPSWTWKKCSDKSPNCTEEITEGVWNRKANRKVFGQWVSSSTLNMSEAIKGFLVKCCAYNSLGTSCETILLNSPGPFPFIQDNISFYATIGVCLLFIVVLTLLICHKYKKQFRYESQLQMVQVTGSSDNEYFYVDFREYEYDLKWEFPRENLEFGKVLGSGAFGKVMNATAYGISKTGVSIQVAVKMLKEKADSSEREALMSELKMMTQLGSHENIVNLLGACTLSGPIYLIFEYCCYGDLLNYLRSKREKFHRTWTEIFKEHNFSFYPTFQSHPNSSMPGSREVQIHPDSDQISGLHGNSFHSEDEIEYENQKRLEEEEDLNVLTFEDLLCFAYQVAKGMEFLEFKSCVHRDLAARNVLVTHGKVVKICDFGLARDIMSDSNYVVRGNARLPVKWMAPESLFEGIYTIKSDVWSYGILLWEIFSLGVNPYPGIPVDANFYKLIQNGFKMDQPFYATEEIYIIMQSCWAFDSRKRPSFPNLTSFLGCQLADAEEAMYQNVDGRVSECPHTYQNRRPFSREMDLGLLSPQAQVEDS", "test": "Selectivity interaction (KinomeScan (DiscoverX)) EUB0000311b FLT3", "conditions": "at 1 µM"}, "[7]": {"target": "Calcium/calmodulin-dependent protein kinase type II subunit delta (Homo sapiens) (UniProt Q13557)", "sequence (Q13557 whole entry)": "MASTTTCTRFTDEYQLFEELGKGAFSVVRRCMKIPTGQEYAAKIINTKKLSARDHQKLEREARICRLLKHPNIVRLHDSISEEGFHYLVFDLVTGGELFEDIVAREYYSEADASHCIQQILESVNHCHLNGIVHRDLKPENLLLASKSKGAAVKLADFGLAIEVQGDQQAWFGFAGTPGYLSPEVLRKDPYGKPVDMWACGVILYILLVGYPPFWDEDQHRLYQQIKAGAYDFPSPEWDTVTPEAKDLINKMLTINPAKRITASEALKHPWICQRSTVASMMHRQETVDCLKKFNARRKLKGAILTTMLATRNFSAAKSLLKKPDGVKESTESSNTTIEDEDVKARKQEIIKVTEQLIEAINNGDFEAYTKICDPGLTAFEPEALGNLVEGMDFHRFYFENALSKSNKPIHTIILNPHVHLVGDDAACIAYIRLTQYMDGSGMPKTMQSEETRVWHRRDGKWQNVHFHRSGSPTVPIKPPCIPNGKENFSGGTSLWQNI", "test": "Selectivity interaction (SelectScreen profiling (Invitrogen)) EUB0000607a CAMK2D", "conditions": "at 2 µM"}, "[8]": {"target": "Cell division control protein 42 homolog (Homo sapiens) (UniProt P60953)", "sequence (P60953 whole entry, looked up)": "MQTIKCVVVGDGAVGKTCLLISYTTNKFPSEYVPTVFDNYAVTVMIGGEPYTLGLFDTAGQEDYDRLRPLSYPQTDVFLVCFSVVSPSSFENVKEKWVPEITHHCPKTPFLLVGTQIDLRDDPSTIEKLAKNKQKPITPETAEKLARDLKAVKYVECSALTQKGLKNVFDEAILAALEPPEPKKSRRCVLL", "test": "Selectivity interaction (SelectScreen profiling (Invitrogen)) EUB0000607a CDC42", "conditions": "at 2 µM"}, "[9]": {"target": "Calcium/calmodulin-dependent protein kinase type II subunit beta (Homo sapiens) (UniProt Q13554)", "sequence (Q13554 whole entry)": "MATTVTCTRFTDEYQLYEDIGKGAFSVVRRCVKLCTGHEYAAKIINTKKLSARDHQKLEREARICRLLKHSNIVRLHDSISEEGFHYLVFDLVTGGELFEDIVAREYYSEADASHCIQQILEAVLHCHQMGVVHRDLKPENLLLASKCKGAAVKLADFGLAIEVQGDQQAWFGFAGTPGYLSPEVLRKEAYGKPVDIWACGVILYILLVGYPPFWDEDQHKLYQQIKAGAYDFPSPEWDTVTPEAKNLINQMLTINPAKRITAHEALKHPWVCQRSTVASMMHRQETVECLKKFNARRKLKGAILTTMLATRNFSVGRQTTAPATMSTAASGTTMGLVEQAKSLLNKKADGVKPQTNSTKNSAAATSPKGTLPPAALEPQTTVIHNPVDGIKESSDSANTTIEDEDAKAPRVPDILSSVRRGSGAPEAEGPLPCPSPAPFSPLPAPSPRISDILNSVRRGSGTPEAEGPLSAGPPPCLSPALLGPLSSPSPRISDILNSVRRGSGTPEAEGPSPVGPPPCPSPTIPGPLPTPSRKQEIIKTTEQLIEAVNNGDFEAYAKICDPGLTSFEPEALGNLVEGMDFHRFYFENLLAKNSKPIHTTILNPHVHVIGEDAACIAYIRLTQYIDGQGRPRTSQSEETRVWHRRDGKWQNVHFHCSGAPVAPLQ", "test": "Selectivity interaction (KinomeScan (DiscoverX)) EUB0001049a CAMK2B", "conditions": "at 1 µM"}, "[10]": {"target": "Cyclin-dependent kinase 2 (Homo sapiens, UniProt P24941)", "test": "Selectivity interaction (KinomeScan (DiscoverX)) EUB0000045b CDK2"}, "Insulin receptor": {"target": "Insulin receptor (Homo sapiens, UniProt P06213)", "sequence (P06213 28-758 limits assumed)": "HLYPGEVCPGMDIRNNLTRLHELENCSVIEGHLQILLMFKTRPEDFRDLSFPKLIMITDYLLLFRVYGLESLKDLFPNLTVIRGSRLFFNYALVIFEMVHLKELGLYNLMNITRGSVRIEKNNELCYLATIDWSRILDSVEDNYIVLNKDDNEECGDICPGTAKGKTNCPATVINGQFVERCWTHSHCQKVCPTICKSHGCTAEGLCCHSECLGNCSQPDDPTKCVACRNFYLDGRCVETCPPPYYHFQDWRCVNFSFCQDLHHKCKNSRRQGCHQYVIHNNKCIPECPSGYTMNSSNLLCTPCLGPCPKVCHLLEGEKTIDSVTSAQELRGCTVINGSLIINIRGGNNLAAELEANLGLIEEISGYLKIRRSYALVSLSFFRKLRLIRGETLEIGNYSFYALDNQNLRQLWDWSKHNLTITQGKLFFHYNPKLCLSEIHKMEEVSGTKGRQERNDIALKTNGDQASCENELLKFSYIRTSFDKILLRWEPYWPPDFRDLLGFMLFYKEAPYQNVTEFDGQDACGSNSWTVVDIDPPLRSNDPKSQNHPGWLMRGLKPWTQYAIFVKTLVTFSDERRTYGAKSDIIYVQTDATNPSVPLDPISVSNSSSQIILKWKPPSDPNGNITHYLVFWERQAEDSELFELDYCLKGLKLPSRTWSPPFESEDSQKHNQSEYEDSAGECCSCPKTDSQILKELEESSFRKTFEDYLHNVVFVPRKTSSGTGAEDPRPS", "sequence (P06213 763-1382 limits assumed)": "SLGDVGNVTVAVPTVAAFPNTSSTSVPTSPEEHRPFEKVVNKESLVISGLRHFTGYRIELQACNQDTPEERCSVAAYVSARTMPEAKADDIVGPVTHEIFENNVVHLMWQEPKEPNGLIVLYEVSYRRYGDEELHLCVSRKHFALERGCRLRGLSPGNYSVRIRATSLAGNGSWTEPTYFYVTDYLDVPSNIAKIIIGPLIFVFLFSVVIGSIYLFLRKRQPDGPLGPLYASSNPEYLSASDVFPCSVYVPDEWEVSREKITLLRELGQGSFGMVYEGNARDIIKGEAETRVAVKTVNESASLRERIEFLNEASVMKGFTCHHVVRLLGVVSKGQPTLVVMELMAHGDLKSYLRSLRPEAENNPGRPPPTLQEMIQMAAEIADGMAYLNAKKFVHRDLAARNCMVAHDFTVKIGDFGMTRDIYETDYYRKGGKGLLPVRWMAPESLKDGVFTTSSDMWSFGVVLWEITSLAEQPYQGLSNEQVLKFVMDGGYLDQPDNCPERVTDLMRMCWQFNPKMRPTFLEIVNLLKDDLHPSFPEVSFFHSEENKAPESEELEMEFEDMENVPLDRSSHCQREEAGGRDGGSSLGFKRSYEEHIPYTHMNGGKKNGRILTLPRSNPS", "test": "Selectivity interaction (Kinase panel (literature)) EUB0001199aCl INSR", "conditions": "at 1 µM"}, "[11]": {"target": "Cyclin-dependent kinase 18 (Homo sapiens) (UniProt Q07002)", "test": "Selectivity interaction (KinomeScan (DiscoverX)) EUB0001619a CDK18", "conditions": "at 1 µM"}, "[12]": {"target": "Serine/threonine-protein kinase PRP4 homolog (Homo sapiens) (UniProt Q13523)", "sequence (Q13523 whole entry)": "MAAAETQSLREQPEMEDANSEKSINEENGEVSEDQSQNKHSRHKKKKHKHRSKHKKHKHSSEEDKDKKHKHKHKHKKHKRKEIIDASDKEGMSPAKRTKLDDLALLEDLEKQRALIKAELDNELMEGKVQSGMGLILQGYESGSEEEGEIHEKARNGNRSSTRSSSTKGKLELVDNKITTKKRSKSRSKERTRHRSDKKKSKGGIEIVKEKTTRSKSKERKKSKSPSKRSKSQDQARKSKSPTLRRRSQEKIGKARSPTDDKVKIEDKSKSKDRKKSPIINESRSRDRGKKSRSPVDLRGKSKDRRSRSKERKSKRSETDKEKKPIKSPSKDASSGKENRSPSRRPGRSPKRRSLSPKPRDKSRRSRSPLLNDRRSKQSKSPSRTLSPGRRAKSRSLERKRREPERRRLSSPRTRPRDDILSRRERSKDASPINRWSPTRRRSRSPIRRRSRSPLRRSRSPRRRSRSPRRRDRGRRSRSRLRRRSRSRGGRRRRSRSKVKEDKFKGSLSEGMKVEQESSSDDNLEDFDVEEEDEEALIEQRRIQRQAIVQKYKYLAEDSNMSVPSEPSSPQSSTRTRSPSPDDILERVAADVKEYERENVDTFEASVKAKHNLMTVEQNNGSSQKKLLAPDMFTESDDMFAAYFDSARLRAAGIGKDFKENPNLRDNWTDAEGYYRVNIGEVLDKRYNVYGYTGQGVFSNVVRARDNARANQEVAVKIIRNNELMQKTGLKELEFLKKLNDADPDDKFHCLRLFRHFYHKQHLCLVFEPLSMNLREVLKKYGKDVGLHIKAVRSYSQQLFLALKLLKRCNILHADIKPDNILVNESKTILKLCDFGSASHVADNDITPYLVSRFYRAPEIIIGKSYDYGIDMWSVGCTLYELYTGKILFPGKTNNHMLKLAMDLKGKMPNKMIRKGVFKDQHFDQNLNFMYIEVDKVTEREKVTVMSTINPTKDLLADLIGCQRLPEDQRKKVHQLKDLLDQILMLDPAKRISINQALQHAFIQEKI", "test": "Selectivity interaction (KinomeScan (DiscoverX)) EUB0001619a PRPF4", "conditions": "at 1 µM"}}}
{"smiles": "Cc1cc(C)cc([C@H]2c3cc(C)ccc3NC(=O)CN2C(=O)c2ccc(Br)s2)c1", "values": [{"measurement": "% of activity", "setting": "[1]; at 1 µM", "result": 98, "unit": "%"}, {"measurement": "% of activity", "setting": "[1]; at 10 µM", "result": 102, "unit": "%"}]}
{"smiles": "COc1cc(N(C)c2ccnc3ccc(C(F)(F)F)cc23)cc(OC)c1OC", "values": [{"measurement": "% binding", "setting": "[2]", "result": 83, "unit": "%"}, {"measurement": "% binding", "setting": "[3]", "result": 84, "unit": "%"}]}
{"smiles": "CCC(=O)N1CCN(c2ccc(-n3c(=O)ccc4cnc5ccc(-c6cnc7ccccc7c6)cc5c43)cc2C(F)(F)F)CC1", "values": [{"measurement": "% of control", "setting": "[4]", "result": 100, "unit": "%"}]}
{"smiles": "CC(=O)Nc1cccc(-n2c(=O)n(C3CC3)c(=O)c3c(Nc4ccc(I)cc4F)n(C)c(=O)c(C)c32)c1", "values": [{"measurement": "% of control", "setting": "[5]", "result": 111, "unit": "%"}]}
{"smiles": "CCc1ccccc1C(=O)Nc1n[nH]c2c(C)c(F)c(C3C(C#N)=C(C)N(C)C(C)=C3C#N)cc12", "note": "[BAY-3827]", "values": [{"measurement": "% of control", "setting": "[6]", "result": 11, "unit": "%"}]}
{"smiles": "CNC(=O)Nc1ccc(-c2nc(N3CC4CCC(C3)O4)c3cnn(C4CCC5(CC4)OCCO5)c3n2)cc1", "values": [{"measurement": "% of inhibition", "setting": "[7]", "result": 11, "unit": "%"}, {"measurement": "% of inhibition", "setting": "[8]", "result": 9, "unit": "%"}]}
{"smiles": "COc1cc(Nc2nc(C)cc(-c3cnn4nc(OC)ccc34)n2)cc(C(F)(F)F)c1", "values": [{"measurement": "% of control", "setting": "[9]", "result": 93, "unit": "%"}]}
{"smiles": "C=CC(=O)Nc1cc(-n2c(=O)ccc3cnc4ccc(-c5ccc(NS(C)(=O)=O)cc5)cc4c32)ccc1C", "values": [{"measurement": "% of control", "setting": "[10]; at 1 µM", "result": 95, "unit": "%"}, {"measurement": "% of control", "setting": "[10]; at 10 µM", "result": 100, "unit": "%"}]}
{"smiles": "CN1Cc2nccc(-c3cn(C)nc3-c3ccc(F)cc3)c2C1=O", "values": [{"measurement": "% of inhibition", "setting": "Insulin receptor", "result": 3, "unit": "%"}]}
{"smiles": "N#Cc1cccc(-c2c[nH]c3ncnc(N4CCOCC4)c23)c1", "values": [{"measurement": "% of control", "setting": "[11]", "result": 100, "unit": "%"}, {"measurement": "% of control", "setting": "[12]", "result": 92, "unit": "%"}]}
